Experimental data published in PubChem BioAssay AID1963961 (Molecular Pharmacology Branch, DTP, NCI, 2024).
Where “and” joins values, the source holds several entries; their conditions need not be identical. Equal values may be shown once. Values belong to the molecule of their own block, whether it stands above or below them.

Tested on: K98450-129-R-PDC multicell spheroids, viability
Experiment: Anticancer human tumor K98450-129-R-PDC patient-derived colon adenocarcinoma cell line growth inhibition [PI3K]
Settings: for viability, T/C: stronger effect = lower value
Description: Combinatorial screen of targeted agents with the PI3K inhibitors inavolisib, alpelisib, duvelisib, and copanlisib in multi-cell type tumor spheroids
A high-throughput screen of multi-cell type tumor spheroids was designed to identify active combinations of targeted small molecules and PI3K pathway inhibitors. Complex spheroids include a stromal component modeled by human endothelial cells (HUVEC) and fibroblasts modeled by human mesenchymal stem cells (MSCs). The concentration ranges selected for each drug and investigational agent were based upon clinically achievable concentrations if the clinical Cmax of the agent was known.
Compounds. The drugs and investigational agents: inavolisib (NSC800729), alpelisib (NSC765974), duvelisib (NSC772469), copanlisib (NSC816437), ipatasertib (NSC767898), afuresertib (NSC778305), talazoparib (NSC767125), sapanisertib (NSC764658), selumetinib (NSC741078), tovorafenib (DAY101, NSC766906), vemurafenib (NSC761431), ravoxertinib (NSC781343), sotorasib (NSC818433), MRTX1133 (NSC 836407), abemaciclib (NSC 768073), palbociclib (NSC758247), venetoclax (NSC 766270), SY5609 (NSC837396), enzalutamide (NSC755605), and darolutamide (NSC825331), were obtained from the National Cancer Institute (NCI) Developmental Therapeutics Program Chemical Repository. The FDA-approved anticancer drug set is available from the NCI Developmental Therapeutics Program. […] The stock solutions were prepared in dimethyl sulfoxide (DMSO, Sigma-Aldrich, St. Louis, MO, cat. D2650) at 800-fold the tested concentration and stored at -70 degrees C prior to their use. All drugs and investigational agents were tested over a range starting from a high concentration at or near the clinical Cmax and decreasing in half-log increments. If the clinical Cmax for an agent had not been determined, the highest concentration tested was 10 microM.
Cell Culture. All cells were maintained in an incubator at 37 degrees C and 5% CO2 with 95% humidity. The PDC lines were cultured according to standard operating procedures established by the NCI PDMR (https://pdmr.cancer.gov/sops/default.htm). All PDCs were thawed and cultured in Matrigel-coated flasks prepared with a working solution of 1X Ham's F-12 nutrient mix, without supplementation (Invitrogen, Waltham, MA, cat. 11765054), 100 U/mL penicillin-streptomycin (Invitrogen, cat. 15140122), and 2.5% Matrigel (Corning Inc., Corning, NY, cat. 354248) for the first three passages. The 354836-022-R-J1-PDC, 475296-252-R-J1-PDC, and 997726-040-R-J2-PDC lines were cultured in 6A media, which includes advanced DMEM/F-12 (Thermo Fisher Scientific, cat. 12634028), 10 mM HEPES (Thermo Fisher Scientific, cat. 15630080), 1X GlutaMAX supplement (Thermo Fisher Scientific, cat. 35050061), 0.1 mg/mL primocin (InvivoGen, San Diego, CA, cat. ant-pm-2), 10% defined fetal bovine serum, heat inactivated (HyClone Laboratories Inc., Logan, UT, cat. SH30070.03HI), 50% L-WRN conditioned media (ATCC, cat. CRL-3276), 1.25 mM N-Acetyl-L-cysteine (Sigma-Aldrich, cat. A9165), 10 mM nicotinamide (Sigma-Aldrich, cat. N0636), 1X B-27 supplement (Thermo Fisher Scientific, cat. 17504044), 1X N-2 supplement (Thermo Fisher Scientific, cat. 17502048), and 10 microM Y-27632 dihydrochloride (Tocris Bioscience, Bristol, United Kingdom, cat. 1254). The 624824-186-R-J2-PDC line was cultured in 6C/Colon 1B media, which includes all 6A media components plus 50 ng/mL human EGF recombinant protein (Thermo Fisher Scientific, cat. PHG0311). […]

[1] = curve of first compound, second compound 0.00316 µM
[2] = curve of first compound, second compound 0.01 µM
[3] = curve of first compound, second compound 0.0316 µM
[4] = curve of first compound, second compound 0.1 µM
[5] = curve of first compound, second compound 0.316 µM
[6] = curve of first compound, second compound 1 µM
[7] = second compound 0.00316 µM, first compound 0.0316 µM
[8] = second compound 0.00316 µM, first compound 0.1 µM
[9] = second compound 0.00316 µM, first compound 0.316 µM
[10] = second compound 0.00316 µM, first compound 1 µM
[11] = second compound 0.00316 µM, first compound 3.16 µM
[12] = second compound 0.00316 µM, first compound 10 µM
[13] = second compound 0.01 µM, first compound 0.0316 µM
[14] = second compound 0.01 µM, first compound 0.1 µM
[15] = second compound 0.01 µM, first compound 0.316 µM
[16] = second compound 0.01 µM, first compound 1 µM
[17] = second compound 0.01 µM, first compound 3.16 µM
[18] = second compound 0.01 µM, first compound 10 µM
[19] = second compound 0.0316 µM, first compound 0.0316 µM
[20] = second compound 0.0316 µM, first compound 0.1 µM
[21] = second compound 0.0316 µM, first compound 0.316 µM
[22] = second compound 0.0316 µM, first compound 1 µM
[23] = second compound 0.0316 µM, first compound 3.16 µM
[24] = second compound 0.0316 µM, first compound 10 µM
[25] = second compound 0.1 µM, first compound 0.0316 µM
[26] = second compound 0.1 µM, first compound 0.1 µM
[27] = second compound 0.1 µM, first compound 0.316 µM
[28] = second compound 0.1 µM, first compound 1 µM
[29] = second compound 0.1 µM, first compound 3.16 µM
[30] = second compound 0.1 µM, first compound 10 µM
[31] = second compound 0.316 µM, first compound 0.0316 µM
[32] = second compound 0.316 µM, first compound 0.1 µM
[33] = second compound 0.316 µM, first compound 0.316 µM
[34] = second compound 0.316 µM, first compound 1 µM
[35] = second compound 0.316 µM, first compound 3.16 µM
[36] = second compound 0.316 µM, first compound 10 µM
[37] = second compound 1 µM, first compound 0.0316 µM
[38] = second compound 1 µM, first compound 0.1 µM
[39] = second compound 1 µM, first compound 0.316 µM
[40] = second compound 1 µM, first compound 1 µM
[41] = second compound 1 µM, first compound 3.16 µM
[42] = second compound 1 µM, first compound 10 µM
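Also: spheroids exposed to agents for seven days before read-out.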

SMILES: CNC(=O)c1ccc(N2C(=S)N(c3ccc(C#N)c(C(F)(F)F)c3)C(=O)C2(C)C)cc1F
viability, T/C (compound 0.0316 µM): 105% (2×) and 88.4% and 94.7% | viability, T/C (compound 0.1 µM): 104% (2×) and 91.1% and 96.9% | viability, T/C (compound 0.316 µM): 102% (2×) and 88.4% and 109% | viability, T/C (compound 1 µM): 102% [middle of 4 runs] | viability, T/C (compound 3.16 µM): 107% [middle of 4 runs] | viability, T/C (compound 10 µM): 113% and 111% (2×) and 90% | IC50 (curve of compound): > 10 µM

SMILES: Cn1ncc(Cl)c1-c1cc(C(=O)NC(CN)Cc2cccc(F)c2)sc1Cl (stereo not drawn)
viability, T/C (compound 0.0316 µM): 108% [middle of 4 runs] | viability, T/C (compound 0.1 µM): 98.9% and 101% (2×) and 95.5% | viability, T/C (compound 0.316 µM): 107% [middle of 4 runs] | viability, T/C (compound 1 µM): 98.2% [middle of 4 runs] | viability, T/C (compound 3.16 µM): 92.7% [middle of 4 runs] | IC50 (curve of compound): > 10 µM

SMILES: CC(Nc1ccc2c(c1)OCCn1cc(N3C(=O)OCC3C(F)F)nc1-2)C(N)=O (stereo not drawn)
viability, T/C (compound 0.00316 µM): 107% [middle of 8 runs] | viability, T/C (compound 0.01 µM): 106% [middle of 8 runs] | viability, T/C (compound 0.0316 µM): 106% [middle of 8 runs] | viability, T/C (compound 0.1 µM): 105% [middle of 8 runs] | viability, T/C (compound 0.316 µM): 105% [middle of 8 runs] | viability, T/C (compound 1 µM): 92.3% [middle of 8 runs] | IC50 (compound alone, run of 04/24/2023): > 1 µM

Now from value to molecule, other results behind:

IC50 (curve of compound): > 10 µM
SMILES: Cn1nccc1Nc1nccc(-c2ccn(C(CO)c3ccc(Cl)c(F)c3)c(=O)c2)n1 (stereo not drawn)
viability, T/C (compound 0.0316 µM): 105% (2×) and 95% and 106% | viability, T/C (compound 0.1 µM): 101% (2×) and 104% and 81.8% | viability, T/C (compound 0.316 µM): 103% [middle of 4 runs] | viability, T/C (compound 1 µM): 101% [middle of 4 runs] | viability, T/C (compound 3.16 µM): 100% [middle of 4 runs] | viability, T/C (compound 10 µM): 94% [middle of 4 runs]

IC50 (curve of compound): > 10 µM
SMILES: C#Cc1c(F)ccc2cc(O)cc(-c3ncc4c(N5CC6CCC(C5)N6)nc(OCC56CCCN5CC(F)C6)nc4c3F)c12 (stereo not drawn)
viability, T/C (compound 0.0316 µM): 109% [middle of 4 runs] | viability, T/C (compound 0.1 µM): 106% [middle of 4 runs] | viability, T/C (compound 0.316 µM): 104% (2×) and 101% and 102% | viability, T/C (compound 1 µM): 105% [middle of 4 runs] | viability, T/C (compound 3.16 µM): 99.8% and 91.5% (2×) and 108% | viability, T/C (compound 10 µM): 89.9% [middle of 4 runs]

IC50 [1]: 6.63 µM | IC50 [2]: 6.48 µM | IC50 [3]: 6.29 µM | IC50 [4]: 6.2 µM | IC50 [5]: 5.98 µM | IC50 [6]: 5.78 µM
SMILES: CCCS(=O)(=O)Nc1ccc(F)c(C(=O)c2c[nH]c3ncc(-c4ccc(Cl)cc4)cc23)c1F + CC(Nc1ccc2c(c1)OCCn1cc(N3C(=O)OCC3C(F)F)nc1-2)C(N)=O
viability, T/C [7]: 113% | viability, T/C [8]: 104% | viability, T/C [9]: 112% | viability, T/C [10]: 111% | viability, T/C [11]: 135% | viability, T/C [12]: 14.1% | viability, T/C [13]: 117% | viability, T/C [14]: 110% | viability, T/C [15]: 114% | viability, T/C [16]: 105% | viability, T/C [17]: 148% | viability, T/C [18]: 8.38% | viability, T/C [19]: 97% | viability, T/C [20]: 105% | viability, T/C [21]: 100% | viability, T/C [22]: 105% | viability, T/C [23]: 136% | viability, T/C [24]: 10.4% | viability, T/C [25]: 96.5% | viability, T/C [26]: 102% | viability, T/C [27]: 97.9% | viability, T/C [28]: 101% | viability, T/C [29]: 130% | viability, T/C [30]: 10.7% | viability, T/C [31]: 90.6% | viability, T/C [32]: 93.7% | viability, T/C [33]: 98.5% | viability, T/C [34]: 98.4% | viability, T/C [35]: 113% | viability, T/C [36]: 10.5% | viability, T/C [37]: 88.3% | viability, T/C [38]: 88.8% | viability, T/C [39]: 91.4% | viability, T/C [40]: 97% | viability, T/C [41]: 91.2% | viability, T/C [42]: 12.5%

IC50 [1]: > 10 µM | IC50 [2]: > 10 µM | IC50 [3]: > 10 µM | IC50 [4]: > 10 µM | IC50 [5]: > 10 µM | IC50 [6]: > 10 µM
SMILES: CC1(C)CCC(Nc2ncc(C(F)(F)F)c(-c3c[nH]c4c(P(C)(C)=O)c(C#N)ccc34)n2)CN1 (stereo not drawn) + CC(Nc1ccc2c(c1)OCCn1cc(N3C(=O)OCC3C(F)F)nc1-2)C(N)=O
viability, T/C [7]: 108% | viability, T/C [8]: 103% | viability, T/C [9]: 95.8% | viability, T/C [10]: 67.7% | viability, T/C [11]: 64.1% | viability, T/C [12]: 63.8% | viability, T/C [13]: 116% | viability, T/C [14]: 98.2% | viability, T/C [15]: 92.7% | viability, T/C [16]: 68.9% | viability, T/C [17]: 67.2% | viability, T/C [18]: 62.2% | viability, T/C [19]: 116% | viability, T/C [20]: 109% | viability, T/C [21]: 81.5% | viability, T/C [22]: 66.8% | viability, T/C [23]: 69.3% | viability, T/C [24]: 65.5% | viability, T/C [25]: 105% | viability, T/C [26]: 107% | viability, T/C [27]: 82.6% | viability, T/C [28]: 66.9% | viability, T/C [29]: 67.8% | viability, T/C [30]: 61.2% | viability, T/C [31]: 100% | viability, T/C [32]: 101% | viability, T/C [33]: 85.4% | viability, T/C [34]: 69.3% | viability, T/C [35]: 66.7% | viability, T/C [36]: 60.7% | viability, T/C [37]: 91.9% | viability, T/C [38]: 90.1% | viability, T/C [39]: 79.1% | viability, T/C [40]: 67.5% | viability, T/C [41]: 69.6% | viability, T/C [42]: 60.6%
